Results published in ChEMBL document CHEMBL1955745, “Synthesis and in vitro antitumor activity of asperphenamate derivatives as autophagy inducer” (Bioorg Med Chem Lett, 2012).
≈ marks a conversion by molar mass, not a printed value. Calls of active or inactive are those of the source. No cut-off for these calls is given here.

Key:
MCF7 [1] = assay: Antiproliferative activity against human MCF7 cells after 3 days by MTT assay; assay type: functional, cell-based; details: MCF7, 72 h
HeLa = assay: Antiproliferative activity against human HeLa cells after 3 days by MTT assay; assay type: functional, cell-based; details: 72 h
Bel-7402 = assay: Antiproliferative activity against human Bel7402 cells after 3 days by MTT assay; assay type: functional, cell-based; details: Bel-7402, 72 h
MCF7 [2] = assay: Ratio of IC50 for cisplatin to compound IC50 for human MCF7 cells after 3 days by MTT assay; assay type: functional
MCF7 [3] = assay: Selectivity ratio of IC50 for human HeLa cells to IC50 for human MCF7 cells; assay type: functional
MCF7 [4] = assay: Selectivity ratio of IC50 for human […] cells to IC50 for human MCF7 cells; assay type: functional
MCF7 [5] = assay: Cell cycle arrest in human MCF7 cells assessed as accumulation at subG1 phase at 10 uM after 24 hrs by propidium iodide staining-based flow cytometric analysis (reference value: 4.11%); assay type: functional
MCF7 [6] = assay: Cell cycle arrest in human MCF7 cells assessed as accumulation at G0/G1 phase at 10 uM after 24 hrs by propidium iodide staining-based flow cytometric analysis (reference value: 60.01%); assay type: functional
MCF7 [7] = assay: Cell cycle arrest in human MCF7 cells assessed as accumulation at S phase at 10 uM after 24 hrs by propidium iodide staining-based flow cytometric analysis (reference value: 14.35%); assay type: functional
MCF7 [8] = assay: Cell cycle arrest in human MCF7 cells assessed as accumulation at G2/M phase at 10 uM after 24 hrs by propidium iodide staining-based flow cytometric analysis (reference value: 20.62%); assay type: functional
MCF7 [9] = assay: Cell cycle arrest in human MCF7 cells assessed as accumulation at subG1 phase at 10 uM after 48 hrs by propidium iodide staining-based flow cytometric analysis (reference value: 4.11%); assay type: functional
MCF7 [10] = assay: Cell cycle arrest in human MCF7 cells assessed as accumulation at G0/G1 phase at 10 uM after 48 hrs by propidium iodide staining-based flow cytometric analysis (reference value: 60.01%); assay type: functional
MCF7 [11] = assay: Cell cycle arrest in human MCF7 cells assessed as accumulation at S phase at 10 uM after 48 hrs by propidium iodide staining-based flow cytometric analysis (reference value: 14.35%); assay type: functional
MCF7 [12] = assay: Cell cycle arrest in human MCF7 cells assessed as accumulation at G2/M phase at 10 uM after 48 hrs by propidium iodide staining-based flow cytometric analysis (reference value: 20.62%); assay type: functional
MCF7 [13] = assay: Cell cycle arrest in human MCF7 cells assessed as accumulation at subG1 phase at 10 uM after 72 hrs by propidium iodide staining-based flow cytometric analysis (reference value: 4.11%); assay type: functional
MCF7 [14] = assay: Cell cycle arrest in human MCF7 cells assessed as accumulation at G0/G1 phase at 10 uM after 72 hrs by propidium iodide staining-based flow cytometric analysis (reference value: 60.01%); assay type: functional
MCF7 [15] = assay: Cell cycle arrest in human MCF7 cells assessed as accumulation at S phase at 10 uM after 72 hrs by propidium iodide staining-based flow cytometric analysis (reference value: 14.35%); assay type: functional
MCF7 [16] = assay: Cell cycle arrest in human MCF7 cells assessed as accumulation at G2/M phase at 10 uM after 72 hrs by propidium iodide staining-based flow cytometric analysis (reference value: 20.62%); assay type: functional
MCF7 [17] = assay: Induction of autophagy in human MCF7 cells assessed as increase in cytoplasmic acidic vesicular organelles at 5 to 10 uM after 72 hrs by AO staining-based fluorescence microscopic analysis; assay type: functional, cell-based
MCF7 [18] = assay: Induction of autophagy in human MCF7 cells assessed as increase in cytoplasmic acidic vesicular organelles at 5 to 10 uM after 72 hrs by MDC staining-based fluorescence microscopic analysis; assay type: functional, cell-based
MCF7 [19] = assay: Induction of autophagy in human MCF7 cells assessed as autophagic cells at 5 uM after 72 hrs by MDC staining-based flow cytometry (reference value: 2.14%); assay type: functional
MCF7 [20] = assay: Induction of autophagy in human MCF7 cells assessed as autophagic cells at 10 uM after 72 hrs by MDC staining-based flow cytometry (reference value: 2.14%); assay type: functional
MCF7 [21] = assay: Induction of autophagy in human MCF7 cells assessed as decrease in LC3-1 level at 5 to 10 uM after 48 hrs by Western blot analysis; assay type: functional, cell-based
MCF7 [22] = assay: Induction of autophagy in human MCF7 cells assessed as increase in […] level at 5 to 10 uM after 48 hrs by Western blot analysis; assay type: functional, cell-based
[23] = Thermodynamic solubility of the compound in phosphate buffer at pH 7.4 at 1 mg after 10 mins by HPLC -UV analysis; assay type: physicochemical; details: read-out: Therm_solubility

SMILES: O=C(Cc1ccccc1OCc1ccccc1)N[C@H](Cc1ccccc1)C(=O)OC[C@@H](Cc1ccccc1)NC(=O)c1ccccc1
- IC50 (MCF7 [1]): 6.06 µM
- IC50 (HeLa): 27 µM
- IC50 (Bel-7402): 32.6 µM
- Ratio IC50 (MCF7 [2]): 1.5
- Ratio IC50 (MCF7 [3]): 5
- Ratio IC50 (MCF7 [4]): 5
- Activity (MCF7 [5]): 1.76%
- Activity (MCF7 [6]): 59.85%
- Activity (MCF7 [7]): 15.98%
- Activity (MCF7 [8]): 21.65%
- Activity (MCF7 [9]): 3.16%
- Activity (MCF7 [10]): 59.4%
- Activity (MCF7 [11]): 17.85%
- Activity (MCF7 [12]): 17.07%
- Activity (MCF7 [13]): 2.83%
- Activity (MCF7 [14]): 57.08%
- Activity (MCF7 [15]): 16.69%
- Activity (MCF7 [16]): 20.38%
- Activity (MCF7 [17]): Active
- Activity (MCF7 [18]): Active
- Activity (MCF7 [19]): 15.62%
- Activity (MCF7 [20]): 52.62%
- Activity (MCF7 [21]): Active
- Activity (MCF7 [22]): Active
- solubility thermodynamic at 10 min [23]: 223 µg/mL (≈ 356 µM)
